Assay results reported in US9429574B2, “Cancer therapies and methods” (priority 2011, dated 2016).
“Also recorded” adds a separate entry of the source.

How the values were obtained:
Format in all cases: cell-based, human
[1] = system: eIF2alpha phosphorylation; assay: Western blot of eIF2alpha phosphorylation upon thapsigargin ER stress induction; conditions: three hour TG exposure
Protocol: Cells were harvested at 50-70% confluency, pelleted by centrifugation, and dissolved in RIPA buffer (10 mM Tris/HCl (pH 7.5), 1 mM EDTA, 1% Triton X-100, 0.1% SDS, 0.1% sodium deoxycholate, 100 mM NaCl) supplemented with protease inhibitors (2 mM PMSF and 1× Complete Mini, Roche). Supernatants were collected, protein concentrations were determined using the BCA assay (Pierce/Thermo Scientific), and proteins were separated in a 10% SDS-polyacrylamide gel. Western blotting followed standard protocols using nitrocellulose membranes (Amersham/GE Healthcare). Signal intensities were analyzed with ImageJ (http://rsb.info.nih.gov/ij/).
Antibodies used were: anti-BAF47 (SMARCB1/SNF5; BD Biosciences, San Diego, Calif.), anti-phospho-eIF2alpha (119A11; Cell Signaling), anti-beta actin-HRP (Abcam, Cambridge, UK).
The CHLA-02-ATRT cell line was obtained from ATCC and kept in neurosphere medium (DMEM/F12 (1:1) with Glutamax, B27, penicillin (100 units/mL), streptomycin (100 μg/mL; all from Invitrogen), HEPES (10 mmol/L), Partricin (0.5 μg/mL, Biochrom); insulin (20 μg/mL; Sigma Aldrich), recombinant human epidermal growth factor (EGF; 20 ng/mL), and rhFGFbasic (20 ng/mL; PAN Biotech)). The human malignant rhabdoid tumor cell line LM (provided by Rupert Handgretinger, Tuebingen, Germany) was kept according to Versteege et al. (Nature 1998). DAOY medulloblastoma cells (provided by Michael Grotzer, Zurich, Switzerland) were kept in EMEM (PAA) supplemented with 10% FBS (Biochrom), 2 mM glutamine, 100 units/mL Penicillin/Streptomycin (Invitrogen), and 2.5 μg/mL Amphotericin B (PAA). Hs683 glioma cell lines (provided by Matthias Simon, Bonn, Germany) were kept in DAOY medium with 1 mM sodium pyruvate, MEM non-essential amino acids, and MEM vitamin solution (all from Invitrogen). SW1783 glioblastoma cells (provided by Matthias Simon, Bonn, Germany) and BT12 AT/RT cells (provided by Michael Grotzer, Zurich, Switzerland) were kept in DMEM (1 g/l glucose) supplemented with 10% FBS (Biochrom), 2 mM glutamine, 100 units/ml Penicillin/Streptomycin (Invitrogen) and 2.5 μg/ml Amphotericin B (PAA).
MCF7-SNF5-KD#73 cells (Xu et al., 2010) were cultured in DMEM (4.5 g/L glucose, Invitrogen), 10% FBS (Tet System Approved, Clontech), 2 mM glutamine, and 100 units/mL Penicillin/Streptomycin (Invitrogen). For the knock-down of SMARCB1, tetracycline (1 μg/mL) was added on day 1 and 3, and cells harvested at day 4. At day 4, cells were treated with DTT (5 mM) or Thapsigargin (5 μM). 786-O and A-498 cells (both from Angelika Toelle, Charité Berlin, Germany), HepG2 cells (from Peter Nilsson-Ehle, Lund University, Sweden), and G401 (ATCC) were kept in RPMI1640 (PAA) supplemented with 10% FBS (Biochrom), 2 mM glutamine, 100 units/mL Penicillin/Streptomycin (Invitrogen), and 2.5 μg/mL Amphotericin B (PAA). A-204 (ATCC) were grown in McCoy's 5a modified medium supplemented with 10% FBS (Biochrom), 100 units/mL Penicillin/Streptomycin (Invitrogen), and 2.5 μg/mL Amphotericin B (PAA). All cells were kept in T75 tissue culture flasks (Techno Plastic Products).

MCF7-SNF5-KD#73 cells = assay: Apoptosis assay (Annexin V/7AAD flow cytometry) in tetracycline-induced SMARCB1 knock-down MCF7 cells; conditions: 10 nM for 12 hours; Tet-induced SMARCB1 knock-down vs non-induced MCF7 cells
Protocol: 500,000 MCF7-SNF5-KD#73 cells (Xu et al., 2010) were plated into T75 tissue culture flasks (Techno Plastic Products). For knockdown experiments, tetracycline (1 μg/mL) was added on day 1 and day 3. In case of Bortezomib (BTZ)-treated cells, the drug (Santa Cruz Biotechnology, final concentration 10 nM) was added for 12 hours on day 4 (at 70-85% confluency).
(§1) Similarly, G401, A498, 786-O, BT12, SW1783, and DAOY cells were plated into 6-well-plates (200,000 cells per well) and grown for 24 hours before 10 nM BTZ, 30 nM Carfilzomib (CFZ, from Active Biochemicals Co.), or DMSO as vehicle control was added to the cell culture media for another 24 hours. Subsequently, cells were carefully washed with PBS and dissociated by trypsinization. Aliquots of single cell suspensions containing 1×10^5 cells in 100 μL PBS were stained with AnnexinV-APC and 7AAD according to the manufacturer's instructions (BD Biosciences) for 15 min at RT. Subsequently, 400 μL of AnnexinV binding buffer was added (10 mM Hepes, 140 mM NaCl and 2.5 mM CaCl2), cell suspensions were placed on ice and immediately analyzed with a FACSCalibur flow cytometer (BD Biosciences). The data analysis was performed using the FlowJo software (Tree Star). For statistical analyses, an unpaired t-test was conducted using Prism 5.0 (GraphPad).

G401 cells = assay: Apoptosis assay (Annexin V/7AAD flow cytometry) in kidney MRT cell line; conditions: G401 vs DMSO and vs SMARCB1-positive cell lines
Protocol: as §1

BT12 cells = assay: Apoptosis assay (Annexin V/7AAD flow cytometry) in brain AT/RT cell line; conditions: BT12 vs DMSO and vs SMARCB1-positive cell lines
Protocol: as §1

[2] = 10 nM BTZ for 24 hours, listed as BTZ

SMILES: C/C=C(/C)C(=O)O[C@H]1C(C)=C2[C@H]([C@@H]1OC(=O)CCCCCCC)[C@@](C)(OC(C)=O)C[C@H](OC(=O)CCC)[C@@]1(O)[C@H]2OC(=O)[C@@]1(C)O [TG, Thapsigargin]
- Fold-change of β-actin-normalized phosphorylated eIF2alpha signal intensities between TSG-treated and untreated cells ([1]; 786-O (SMARCB1-positive renal cell carcinoma)): 0.60
- Fold-change of β-actin-normalized phosphorylated eIF2alpha signal intensities between TSG-treated and untreated cells ([1]; A-204 (MRT, muscle origin, lacking SMARCB1)): 1.39
- Fold-change of β-actin-normalized phosphorylated eIF2alpha signal intensities between TSG-treated and untreated cells ([1]; A-498 (SMARCB1-positive renal cell carcinoma)): 1.12
- Fold-change of β-actin-normalized phosphorylated eIF2alpha signal intensities between TSG-treated and untreated cells ([1]; CHLA2 (AT/RT, lacking SMARCB1)): 5.89
- Fold-change of β-actin-normalized phosphorylated eIF2alpha signal intensities between TSG-treated and untreated cells ([1]; DAOY (SMARCB1-positive brain tumor)): 0.77
- Fold-change of β-actin-normalized phosphorylated eIF2alpha signal intensities between TSG-treated and untreated cells ([1]; G401 (MRT, kidney origin, lacking SMARCB1)): 2.49
- Fold-change of β-actin-normalized phosphorylated eIF2alpha signal intensities between TSG-treated and untreated cells ([1]; HepG2 (SMARCB1-positive hepatocellular carcinoma)): 0.56
- Fold-change of β-actin-normalized phosphorylated eIF2alpha signal intensities between TSG-treated and untreated cells ([1]; Hs683 (SMARCB1-positive brain tumor)): 0.81
- Fold-change of β-actin-normalized phosphorylated eIF2alpha signal intensities between TSG-treated and untreated cells ([1]; LM (MRT, liver origin, lacking SMARCB1)): 1.27
- Fold-change of β-actin-normalized phosphorylated eIF2alpha signal intensities between TSG-treated and untreated cells ([1]; SW1783 (SMARCB1-positive brain tumor)): 0.75

SMILES: CC(C)C[C@H](NC(=O)[C@H](Cc1ccccc1)NC(=O)c1cnccn1)B(O)O [Bortezomib, [(1R)-3-methyl-1-({(2S)-3-phenyl-2-[(pyrazin-2-ylcarbonyl)-amino]propanoyl}amino)butyl]boronic acid]
- Apoptosis (Annexin V-positive and 7AAD-negative cells) (MCF7-SNF5-KD#73 cells): increased apoptosis
- Apoptosis (Annexin V-positive and 7AAD-negative cells) (G401 cells; 10 nM BTZ for 24 hours): increased apoptosis
- Apoptosis (Annexin V-positive and 7AAD-negative cells) (G401 cells; [2]): highest apoptosis
- Apoptosis (Annexin V-positive and 7AAD-negative cells) (BT12 cells; 10 nM BTZ for 24 hours): increased apoptosis
- Apoptosis (Annexin V-positive and 7AAD-negative cells) (BT12 cells; [2]): highest apoptosis

SMILES: CC(C)C[C@H](NC(=O)[C@H](CCc1ccccc1)NC(=O)CN1CCOCC1)C(=O)N[C@@H](Cc1ccccc1)C(=O)N[C@@H](CC(C)C)C(=O)[C@@]1(C)CO1 [Carfilzomib]
- Apoptosis (Annexin V-positive and 7AAD-negative cells) (G401 cells; 30 nM CFZ for 24 hours): highest apoptosis; also recorded: increased apoptosis
- Apoptosis (Annexin V-positive and 7AAD-negative cells) (BT12 cells; 30 nM CFZ for 24 hours): highest apoptosis; also recorded: increased apoptosis
